These results are taken from patent publication US12595230B2, “Substituted 6,7-dihydro-5H-benzo[7]annulene compounds and their derivatives, processes for their preparation and therapeutic uses thereof” (Sanofi, priority 2020, dated 2026).

The assay addresses T1, ERα (Homo sapiens, UniProt P03372).
T1 construct: host or cells: MCF7
T1 sequence (P03372 1-595): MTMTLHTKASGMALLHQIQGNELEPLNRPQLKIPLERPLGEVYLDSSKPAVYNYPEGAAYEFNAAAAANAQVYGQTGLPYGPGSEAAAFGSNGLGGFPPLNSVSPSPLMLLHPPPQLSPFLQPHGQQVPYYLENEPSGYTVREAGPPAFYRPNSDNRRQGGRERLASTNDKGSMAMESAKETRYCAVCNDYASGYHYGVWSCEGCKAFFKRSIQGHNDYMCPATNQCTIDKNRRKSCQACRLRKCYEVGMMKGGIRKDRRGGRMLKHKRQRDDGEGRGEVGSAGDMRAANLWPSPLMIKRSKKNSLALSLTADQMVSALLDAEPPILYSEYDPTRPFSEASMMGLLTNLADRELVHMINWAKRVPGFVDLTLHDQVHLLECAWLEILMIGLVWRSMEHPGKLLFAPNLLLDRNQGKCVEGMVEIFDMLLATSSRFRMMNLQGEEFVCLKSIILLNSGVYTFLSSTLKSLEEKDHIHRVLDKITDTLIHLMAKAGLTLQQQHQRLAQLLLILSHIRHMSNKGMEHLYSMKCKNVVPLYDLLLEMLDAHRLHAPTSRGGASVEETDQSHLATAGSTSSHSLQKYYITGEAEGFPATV
The experiment in a line: Estrogen receptor degradation activity: breast cancer cell ERα in cell western assay (MCF7 cells). In kind it is cell-based. As to conditions: for % Degradation At 0.3 μM: 4 hours, relative to fulvestrant 0.1 μM positive control; for DC50: 4 hours post compound addition, concentration which degrades 50% of the estrogen receptor, read-out: Degradation IC50. In outline: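 Compounds were applied to MCF7 cells in stripped-serum, phenol red-free medium for 4 h at final 0.3–0.0000018 μM, with fulvestrant (0.1 μM) as control. Value: IC50 (nM) for 50% ERα degradation.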

Take `Cl.O=C(O)c1ccc2c(c1)CCCC(c1ccc(F)c3c1CCC3)=C2c1ccc(CC2CN(CCCF)C2)cc1` [Example 55, 8-(7-fluoro-2,3-dihydro-1H-inden-4-yl)-9-(4-((1-(3-fluoropropyl)azetidin-3-yl)methyl)phenyl)-6,7-dihydro-5H-benzo[7]annulene-3-carboxylic acid hydrochloride]: the “% Degradation At 0.3 μM” value is 93% and the DC50 turned out to be 500 pM.

Consider `Cl.O=C(O)c1ccc2c(c1)CCCC(c1cc(F)ccc1C(F)(F)F)=C2c1ccc(CC2CN(CCCF)C2)cc1` [Example 332, 8-(5-fluoro-2-(trifluoromethyl)phenyl)-9-(4-((1-(3-fluoropropyl)azetidin-3-yl)methyl)phenyl)-6,7-dihydro-5H-benzo[7]annulene-3-carboxylic acid hydrochloride], for which the “% Degradation At 0.3 μM” value stood at 85% and the DC50 turned out to be 400 pM.

For `COc1cc(C2=C(c3ccc(CC4CN(CCCF)C4)cc3)c3ccc(C(=O)[O-])cc3CCC2)cc(C(F)(F)F)n1.[Na+]` [Example 274, sodium 9-(4-((1-(3-fluoropropyl)azetidin-3-yl)methyl)phenyl)-8-(2-methoxy-6-(trifluoromethyl)pyridin-4-yl)-6,7-dihydro-5H-benzo[7]annulene-3-carboxylate], the “% Degradation At 0.3 μM” value is 84% and the DC50 was 6500 pM.

As to `Cc1c(C(=O)O)ccc2c1CCCC(c1ccc(Cl)cc1Cl)=C2c1ccc(CC2CN(CCCF)C2)cc1.Cl` [Example 250, 8-(2,4-dichlorophenyl)-9-(4-((1-(3-fluoropropyl)azetidin-3-yl)methyl)phenyl)-4-methyl-6,7-dihydro-5H-benzo[7]annulene-3-carboxylic acid hydrochloride], the “% Degradation At 0.3 μM” value is 90% and the DC50 was 600 pM.

In the case of `O=C(O)c1c(F)cc2c(c1F)CCCC(c1ccc(Cl)cc1Cl)=C2c1ccc(CC2CN(CCCF)C2)cc1` [Example 225, 8-(2,4-dichlorophenyl)-2,4-difluoro-9-(4-((1-(3-fluoropropyl)azetidin-3-yl)methyl)phenyl)-6,7-dihydro-5H-benzo[7]annulene-3-carboxylic acid], the “% Degradation At 0.3 μM” value was 82% and the DC50 is 6600 pM.

Regarding `Cc1c(F)ccc(C2=C(c3ccc(CC4CN(CCC(F)F)C4)cc3)c3ccc(C(=O)O)cc3CCC2)c1C` [Example 285, 9-(4-((1-(3,3-difluoropropyl)azetidin-3-yl)methyl)phenyl)-8-(4-fluoro-2,3-dimethylphenyl)-6,7-dihydro-5H-benzo[7]annulene-3-carboxylic acid], the “% Degradation At 0.3 μM” value worked out at 89% and the DC50 is 400 pM.

With `O=C(O)c1ccc2c(c1)CCCC(c1cccc3c1CC3)=C2c1ccc(CC2CN(CCCF)C2)cc1` [Example 53, 8-(bicyclo[4.2.0]octa-1(6),2,4-trien-2-yl)-9-(4-((1-(3-fluoropropyl)azetidin-3-yl)methyl)phenyl)-6,7-dihydro-5H-benzo[7]annulene-3-carboxylic acid], the “% Degradation At 0.3 μM” value turned out to be 91% and the DC50 came out at 400 pM.

In the case of `COc1c(C(=O)O)ccc2c1CCCC(c1ccc(F)cc1F)=C2c1ccc(CC2CN(CCCF)C2)cc1` [Example 270, 8-(2,4-difluorophenyl)-9-(4-((1-(3-fluoropropyl)azetidin-3-yl)methyl)phenyl)-4-methoxy-6,7-dihydro-5H-benzo[7]annulene-3-carboxylic acid], the “% Degradation At 0.3 μM” value is 100% and the DC50 is 225000 pM.

On to `Cl.O=C(O)c1ccc2c(c1)CCCC(c1cccc(F)c1Cl)=C2c1ccc(CC2CN(CCCF)C2)cc1` [Example 9, 8-(2-chloro-3-fluorophenyl)-9-(4-((1-(3-fluoropropyl)azetidin-3-yl)methyl)phenyl)-6,7-dihydro-5H-benzo[7]annulene-3-carboxylic acid], for which the “% Degradation At 0.3 μM” value turned out to be 92% and the DC50 was found to be 300 pM.

On to `O=C(O)c1ccc2c(c1)CCCC(c1ccc(Cl)cc1Cl)=C2c1ccc(CC2CN(CCCF)C2)cn1` [Example 253, 8-(2,4-dichlorophenyl)-9-(5-((1-(3-fluoropropyl)azetidin-3-yl)methyl)pyridin-2-yl)-6,7-dihydro-5H-benzo[7]annulene-3-carboxylic Acid], for which the “% Degradation At 0.3 μM” value is reported as 89% and the DC50 turned out to be 4000 pM.

Consider `O=C(O)c1ccc2c(c1)CCCC(c1ccc(Cl)cc1C(F)(F)F)=C2c1ccc(CC2(F)CN(CCCF)C2)cc1` [Example 237, 8-(4-chloro-2-(trifluoromethyl)phenyl)-9-(4-((3-fluoro-1-(3-fluoropropyl)azetidin-3-yl)methyl)phenyl)-6,7-dihydro-5H-benzo[7]annulene-3-carboxylic acid], for which the “% Degradation At 0.3 μM” value stood at 88% and the DC50 is 5800 pM.

Regarding `Cl.O=C(O)c1ccc2c(c1)CCCC(c1ccc(Cl)cc1Cl)=C2c1ccc(CC2CN(CCCF)C2)cc1F` [Example 47, 8-(2,4-dichlorophenyl)-9-(2-fluoro-4-((1-(3-fluoropropyl)azetidin-3-yl)methyl)phenyl)-6,7-dihydro-5H-benzo[7]annulene-3-carboxylic acid], the “% Degradation At 0.3 μM” value was determined as 93% and the DC50 turned out to be 400 pM.

On to `CCOC(c1ccc(C2=C(c3ccc(Cl)cc3Cl)CCCc3cc(C(=O)O)ccc32)cc1)C1CN(CCCF)C1` (single isomer, unassigned; isomer 1) [Example 229, 8-(2,4-dichlorophenyl)-9-(4-(ethoxy(1-(3-fluoropropyl)azetidin-3-yl)methyl)phenyl)-6,7-dihydro-5H-benzo[7]annulene-3-carboxylic Acid Isomer 1], for which the “% Degradation At 0.3 μM” value was 77% and the DC50 amounted to 600 pM.

As for `Oc1ccc2c(c1)CCCC(c1ccc(Cl)cc1Cl)=C2c1ccc(CC2CN(CCCF)C2)cc1` [Example 254, 8-(2,4-dichlorophenyl)-9-(4-((1-(3-fluoropropyl)azetidin-3-yl)methyl)phenyl)-6,7-dihydro-5H-benzo[7]annulen-3-ol], the “% Degradation At 0.3 μM” value was 85% and the DC50 came out at 1400 pM.

Turning to `O=C(O)c1ccc2c(c1)CCCC(c1cccc(F)c1F)=C2c1ccc(CC2CN(CCCF)C2)cc1` [Example 22, 8-(2,3-difluorophenyl)-9-(4-((1-(3-fluoropropyl)azetidin-3-yl)methyl)phenyl)-6,7-dihydro-5H-benzo[7]annulene-3-carboxylic acid], the “% Degradation At 0.3 μM” value was determined as 92% and the DC50 stood at 300 pM.

As to `COc1c(C(=O)O)ccc2c1CCCC(c1ccc(F)cc1C)=C2c1ccc(CC2CN(CCCF)C2)cc1` [Example 269, 8-(4-fluoro-2-methylphenyl)-9-(4-((1-(3-fluoropropyl)azetidin-3-yl)methyl)phenyl)-4-methoxy-6,7-dihydro-5H-benzo[7]annulene-3-carboxylic acid], the “% Degradation At 0.3 μM” value came out at 100% and the DC50 came out at 180000 pM.

For the molecule `COc1cc(F)ccc1C1=C(c2ccc(CC3CN(CCCF)C3)cc2)c2ccc(C(=O)O)cc2CCC1` [Example 36, 8-(4-fluoro-2-methoxyphenyl)-9-(4-((1-(3-fluoropropyl)azetidin-3-yl)methyl)phenyl)-6,7-dihydro-5H-benzo[7]annulene-3-carboxylic acid], the “% Degradation At 0.3 μM” value was found to be 89% and the DC50 turned out to be 600 pM.

As for `O=C(O)c1ccc2c(c1)CCCC(c1ccccc1Cl)=C2c1ccc(CC2CN(CCCF)C2)cc1` [Example 3, 8-(2-chlorophenyl)-9-(4-((1-(3-fluoropropyl)azetidin-3-yl)methyl)phenyl)-6,7-dihydro-5H-benzo[7]annulene-3-carboxylic acid], the “% Degradation At 0.3 μM” value was found to be 89% and the DC50 worked out at 300 pM.

Consider `COc1c(F)cccc1C1=C(c2ccc(CC3CN(CCCF)C3)cc2)c2ccc(C(=O)O)cc2CCC1` [Example 335, 8-(3-fluoro-2-methoxyphenyl)-9-(4-((1-(3-fluoropropyl)azetidin-3-yl)methyl)phenyl)-6,7-dihydro-5H-benzo[7]annulene-3-carboxylic acid], for which the “% Degradation At 0.3 μM” value came to 93% and the DC50 came to 600 pM.

As to `Cc1ccc(C2=C(c3ccc(CC4CN(CCCF)C4)cc3)c3ccc(C(=O)O)cc3CCC2)c(C)c1.Cl` [Example 10, 8-(2,4-dimethylphenyl)-9-(4-((1-(3-fluoropropyl)azetidin-3-yl)methyl)phenyl)-6,7-dihydro-5H-benzo[7]annulene-3-carboxylic acid], the “% Degradation At 0.3 μM” value is reported as 92% and the DC50 is 300 pM.

As for `Cl.O=C(O)c1ccc2c(c1)CCCC(C1=CCC(F)(F)CC1)=C2c1ccc(CC2CN(CCCF)C2)cc1` [Example 5, 8-(4,4-difluorocyclohex-1-en-1-yl)-9-(4-((1-(3-fluoropropyl)azetidin-3-yl)methyl)phenyl)-6,7-dihydro-5H-benzo[7]annulene-3-carboxylic acid], the “% Degradation At 0.3 μM” value amounted to 86% and the DC50 was found to be 500 pM.
